# Patent publication US20240408169A1 (priority 2023, published 2024)
# Conditions: from (S,Z)-2-((((9H-fluoren-9-yl)methoxy)carbonyl)(methyl)amino)-9-((S)-2-((S)-2-(12-azaneyl)-N,4-dimethylpentanamido)-3-(5-chloro-2-cyclopropoxypyridin-3-yl)-N-methylpropanamido)non-4-enoic acid TFA salt; amide bond; 16-membered ring; PyBOP/HOAt/DIEA; DCM; 2.6 mM; 25.0 °C
compound,measurement,value
CCN(C(=O)OC1c2ccccc2-c2ccccc21)[C@H]1C/C=C\CCCCN(C)C(=O)[C@H](Cc2cc(Cl)cnc2OC2CC2)N(C)C(=O)[C@H](CC(C)C)NC1=O,"ring closure, isolated yield",30%
